Results reported in patent publication US7452997B2 (priority 2004, dated 2008).
pIC50: −log10 of the molar value. Read-outs that look alike come from different tables or passages of the source.

How the values were obtained:
human CB1 receptor = target: T1, human CB1 receptor (Homo sapiens, UniProt P21554); test: biochemical; format: binding
T1 construct: expressed in transfected cells; host or cells: SK-N-MC cells, stably transfected with pcDNA3 CB-1 (human); semi-purified membrane pellet
Procedure, shortened: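 Radioligand binding was run at 30° C for 90 minutes, pH 7.5 Tris buffer containing 0.5 mg/mL fatty acid free BSA, on semi-purified membranes of stably transfected SK-N-MC cells. Filter-bound radioactivity was scintillation counted, with IC50 obtained by linear regression across compound concentrations.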

human CB2 receptor = human CB2 receptor (Homo sapiens, UniProt P34972); test: Binding assay, cannabinoid CB2 receptor ([3H]-CP-55,940 displacement); settings: SK-N-MC cell membranes, radioligand CP-55,940 0.2 nM
Sequence of human CB2 receptor (P34972 whole entry): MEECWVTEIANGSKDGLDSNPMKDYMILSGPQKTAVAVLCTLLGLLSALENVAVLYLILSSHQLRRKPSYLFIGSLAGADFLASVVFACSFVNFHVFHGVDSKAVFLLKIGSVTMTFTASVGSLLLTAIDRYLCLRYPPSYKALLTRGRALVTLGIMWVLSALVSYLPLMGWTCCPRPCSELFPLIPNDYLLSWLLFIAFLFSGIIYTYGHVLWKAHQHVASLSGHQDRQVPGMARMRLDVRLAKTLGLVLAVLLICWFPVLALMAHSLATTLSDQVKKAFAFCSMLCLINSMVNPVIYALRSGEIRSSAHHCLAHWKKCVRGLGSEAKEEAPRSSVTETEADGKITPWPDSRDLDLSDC
Procedure, shortened: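 Displacement of [3H]-CP-55,940 (0.2 nM) was measured over 90 min at 30 °C (pH 7.5 Tris/MgCl2/EDTA buffer with BSA), using semi-purified membranes of human CB2-transfected SK-N-MC cells. Bound counts collected on GF/C filters, 10 uM WIN 55,212 as nonspecific control; IC50 from varied concentrations.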

[1] = Cannabinoid CB2 Receptor Binding IC50, human CB2 receptor
[2] = human CB1 receptor, SK-N-MC cell membranes, radioligand CP-55,940 0.2 nM, read-out: Cannabinoid CB1 Receptor Binding IC50
[3] = human CB2 receptor, read-out: Cannabinoid CB2 Receptor Binding IC50

T1 sequence (P21554 whole entry): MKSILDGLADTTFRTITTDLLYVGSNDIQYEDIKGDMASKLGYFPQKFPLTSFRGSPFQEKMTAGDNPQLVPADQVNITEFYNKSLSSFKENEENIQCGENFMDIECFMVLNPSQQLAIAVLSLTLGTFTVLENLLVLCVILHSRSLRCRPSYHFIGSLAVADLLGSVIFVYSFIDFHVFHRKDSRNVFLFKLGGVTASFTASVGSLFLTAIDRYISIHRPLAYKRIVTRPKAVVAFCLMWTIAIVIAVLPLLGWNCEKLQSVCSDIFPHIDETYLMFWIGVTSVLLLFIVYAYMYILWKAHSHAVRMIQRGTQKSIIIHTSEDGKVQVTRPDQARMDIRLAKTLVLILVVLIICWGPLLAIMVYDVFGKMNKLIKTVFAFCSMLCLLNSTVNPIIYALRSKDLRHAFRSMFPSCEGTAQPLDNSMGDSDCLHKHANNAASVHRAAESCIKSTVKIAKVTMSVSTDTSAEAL

Row | Compound | pIC50 (human CB1 receptor) | pIC50 (human CB2 receptor; [1]) | pIC50 (human CB1 receptor; [2]) | pIC50 (human CB2 receptor; [3])
1 | CCOC(=O)C1CCCc2c1c(C(=O)NC1C3CC4CC(C3)CC1C4)nn2Cc1ccccc1 (stereo not drawn) [compound 158] | 7.89 | 8.05 |  | 
2 | CCOC(=O)C1CCCc2c1c(C(=O)NCC13CC4CC(CC(C4)C1)C3)nn2Cc1ccccc1 (stereo not drawn) [compound 159] | 6.13 | 6.89 |  | 
3 | COC1CCCc2c(C(=O)NC(C)C34CC5CC(CC(C5)C3)C4)nn(C3CCCCC3)c21 (stereo not drawn) [compound 161] | 5.28 | 6.11 |  | 
4 | COC1CCCc2c(C(=O)NC3C4CC5CC(C4)CC3C5)nn(C3CCCCC3)c21 (stereo not drawn) [compound 162] |  |  | 6.20 | 6.96
5 | CC(NC(=O)c1nn(C2CCCCC2)c2c1CCCC2O)C12CC3CC(CC(C3)C1)C2 (stereo not drawn) [compound 163] | 5.32 | 6.68 |  | 
6 | CCOC(=O)N1CCC(NC(=O)c2nn(Cc3ccccc3)c3c2CCCC3)CC1 [compound 171] | 6.19 | 6.52 |  | 
7 | O=C(NCc1cccnc1)c1nn(C2CCCCC2)c2c1CCCC2 [compound 173] | 6.35 | 6.28 |  | 
8 | O=C(CNC(=O)c1nn(C2CCCCC2)c2c1CCCC2)c1ccc(Br)cc1 [compound 177] | 4.98 | 5.62 |  | 
9 | O=C(Nc1nn(C2CCCCC2)c2c1CCCC2)C12CC3CC(CC(C3)C1)C2 [compound 179] | 5.14 | 6.15 |  | 
10 | O=C(Nc1nn(C2CCCCC2)c2c1CCCC2)C1CCCCC1 [compound 180] | 6.15 | 5.77 |  | 
11 | O=C(Nc1nn(C2CCCCC2)c2c1CCCC2)c1cccc2ccccc12 [compound 181] | 6.52 | 5.80 |  | 
12 | O=C(NC1CCCc2ccccc21)c1nn(C2CCCCC2)c2c1CCCC2 (stereo not drawn) [compound 183] | 7.30 | 8.16 |  | 
13 | O=C(NCC(O)C1CCCCC1)c1nn(C2CCCCC2)c2c1CCCC2 (stereo not drawn) [compound 185] | 6.05 | 6.92 |  | 
14 | O=C(NCC(=O)C1CCCCC1)c1nn(C2CCCCC2)c2c1CCCC2 [compound 187] | 5.43 | 5.80 |  | 
15 | O=C(NCC1CCCCC1)c1nn(Cc2ccccc2)c2c1CCCC2 [compound 189] | 8.00 | 8.00 |  | 
16 | CCOC(=O)C1CCc2nn(C3CCCCC3)c(C(=O)NC(C)C34CC5CC(CC(C5)C3)C4)c2C1 (stereo not drawn) [compound 190] | 5.79 | 5.35 |  | 
17 | CCC1CCCc2c(C(=O)NC3C4(C)CCC(C4)C3(C)C)nn(-c3ccc(F)cc3)c21 (stereo not drawn) [compound 192] | 7.22 | 8.70 |  | 
18 | CC(NC(=O)c1nn(C2CCCCC2)c2c1CCCC2)C1CCCC1 (stereo not drawn) [compound 193] | 6.92 | 8.30 |  | 
19 | C[C@H](NC(=O)c1nn(C2CCCCC2)c2c1CCCC2)c1ccccc1 [compound 196] | 6.90 | 6.92 |  | 
20 | C[C@@H](NC(=O)c1nn(C2CCCCC2)c2c1CCCC2)c1ccccc1 [compound 197] | 6.01 | 6.10 |  | 
21 | C[C@@H](NC(=O)c1nn(Cc2ccccc2)c2c1CCCC2)C1CCCCC1 [compound 198] | 7.00 | 8.24 |  | 

Row | Compound | pIC50 (human CB1 receptor) | pIC50 (human CB2 receptor; [1]) | pIC50 (human CB1 receptor; [2]) | pIC50 (human CB2 receptor; [3])
22 | C[C@@H](NC(=O)c1nn(Cc2ccccc2)c2c1CCCC2)c1ccccc1 [compound 199] | 7.72 | 8.00 |  | 
23 | C[C@H](NC(=O)c1nn(Cc2ccccc2)c2c1CCCC2)c1ccccc1 [compound 200] | 8.10 | 9.00 |  | 
24 | C[C@H](NC(=O)c1nn(Cc2ccccc2)c2c1CCCC2)C1CCCCC1 [compound 201] | 8.77 | 8.70 |  | 
25 | CC12CCC(C1)C(C)(C)[C@H]2NC(=O)c1nn(-c2ccc(F)cc2)c2c1CCCC2 (stereo partly drawn) [compound 202] | 6.94 | 8.35 |  | 
26 | CCN(C(=O)c1nn(C2CCCCC2)c2c1CCCC2)[C@H](C)C1CCCCC1 [compound 203] | 6.23 | 6.62 |  | 
27 | CC[C@@H](NC(=O)c1nn(C2CCCCC2)c2c1CCCC2)c1ccccc1 [compound 204] | 6.10 | 8.00 |  | 
28 | CC12CCC(C1)C(C)(C)C2NC(=O)Nc1nn(C2CCCCC2)c2c1CCCC2 (stereo not drawn) [compound 205] | 5.80 | 7.15 |  | 
29 | CCOC(=O)[C@@H]1C2C=CC(C2)[C@@H]1NC(=O)c1nn(Cc2ccccc2)c2c1CCCC2 (stereo partly drawn) [compound 206] | 7.01 | 7.85 |  | 
30 | CCOC(=O)[C@H]1CCc2c(c(C(=O)NC3C4CC5CC(C4)CC3C5)nn2Cc2ccccc2)C1 (stereo partly drawn) [compound 210] | 6.47 | 8.10 |  | 
31 | C[C@H](NC(=O)c1nn(C2CCCCC2)c2c1CCCC2)C12CC3CC(CC(C3)C1)C2 [compound 213] | 6.02 | 6.70 |  | 
32 | C[C@@H]1[C@@H](NC(=O)c2nn(C3CCCCC3)c3c2CCCC3)C[C@H]2C[C@@H]1C2(C)C [compound 216] | 5.55 | 7.15 |  | 
33 | CCOC(=O)C1CCc2nn(C3CCCCC3)c(C(=O)NC3C4CC5CC(C4)CC3C5)c2C1 (stereo not drawn) [compound 221] | 5.48 | 6.34 |  | 
34 | CC(NC(=O)c1nn(C2CCCCC2)c2c1CC(C(N)=O)CC2)C12CC3CC(CC(C3)C1)C2 (stereo not drawn) [compound 224] | 5.82 | 5.92 |  | 
35 | CCOC(=O)C1CCc2nn(Cc3ccccc3)c(C(=O)NC34CC5CC(CC3C5)C4)c2C1 (stereo not drawn) [compound 227] | 5.56 | 5.94 |  | 
36 | CCOC(=O)C1CCc2c(C(=O)NC3C4CC5CC(C4)CC3C5)nn(Cc3ccccc3)c2C1 (stereo not drawn) [compound 230] | 8.00 | 9.00 |  | 
37 | CC(C)(C)OC(=O)C1CCc2c(c(C(=O)NC3C4CC5CC(C4)CC3C5)nn2C2CCCCC2)C1 (stereo not drawn) [compound 233] | 5.80 | 6.06 |  | 
38 | CCC(NC(=O)c1nn(C2CCCCC2)c2c1CCCC2)C1CCCCC1 (stereo not drawn) [compound 234] | 6.64 | 8.00 |  | 
39 | CN(C)C(=O)C1CCc2c(c(C(=O)NC3C4(C)CCC(C4)C3(C)C)nn2C2CCCCC2)C1 (stereo not drawn) [compound 235] | 5.44 | 5.85 |  | 
40 | COc1ccccc1CCNC(=O)c1nn(C2CCCCC2)c2c1CCCC2 [compound 236] | 4.60 | 6.03 |  | 
41 | COc1ccccc1CCNC(=O)c1nn(Cc2ccccc2)c2c1CCCC2 [compound 237] | 6.05 | 6.82 |  | 
42 | COc1ccccc1CCNC(=O)c1nn(-c2ccccc2)c2c1CCCC2 [compound 238] |  |  | 4.60 | 5.43

Row | Compound | pIC50 (human CB1 receptor) | pIC50 (human CB2 receptor; [1]) | pIC50 (human CB1 receptor; [2]) | pIC50 (human CB2 receptor; [3])
43 | CC(c1ccccc1)n1nc(C(=O)NCC2CCCCC2)c2c1CCCC2 (stereo not drawn) [compound 242] | 6.52 | 5.80 |  | 
44 | CC(c1ccccc1)n1nc(C(=O)NC2C3CC4CC(C3)CC2C4)c2c1CCCC2 (stereo not drawn) [compound 243] | 6.89 | 8.40 |  | 
45 | CC(c1ccccc1)n1nc(C(=O)NC23CC4CC(CC(C4)C2)C3)c2c1CCCC2 (stereo not drawn) [compound 244] | 6.52 | 7.10 |  | 
46 | CC1CCCCC1NC(=O)c1nn(C2CCCCC2)c2c1CCCC2 (stereo not drawn) [compound 245] | 7.70 | 8.70 |  | 
47 | CC(NC(=O)c1nn(C2CCCCC2)c2c1CCCC2)C1CCCCCC1 (stereo not drawn) [compound 246] | 5.64 | 7.05 |  | 
48 | CC(NC(=O)c1nn(C2CCCCC2)c2c1CCCC2)C1CCC1 (stereo not drawn) [compound 247] | 6.59 | 7.33 |  | 
49 | CC(NC(=O)c1nn(C2CCCCC2)c2c1CCCC2)[C@H]1CC[C@H](C)CC1 (stereo partly drawn) [compound 248] |  | 7.70 | 6.80 | 
50 | CC(c1ccccc1)n1nc(C(=O)NC2C3(C)CCC(C3)C2(C)C)c2c1CCCC2 (stereo not drawn) [compound 250] | 7.15 | 8.25 |  | 
51 | C[C@H]1C(NC(=O)c2nn(C3CCCCC3)c3c2CCCC3)C[C@@H]2C[C@H]1C2(C)C (stereo partly drawn) [compound 252] | 7.40 | 7.32 |  | 
52 | CC12CCC(C1)C(C)(C)C2NC(=O)c1nn(Cc2ccccc2)c2c1CCCC2c1ccccc1 (stereo not drawn) [compound 265] | 7.02 | 7.39 |  | 
53 | CC(NC(=O)c1nn(Cc2ccccc2)c2c1CCCC2c1ccccc1)C1CCCCC1 (stereo not drawn) [compound 267] | 6.82 | 6.57 |  | 
54 | CCOC(=O)[C@@H]1CCCC[C@H]1NC(=O)c1nn(C2CCCCC2)c2c1CCCC2 [compound 269] | 6.72 | 7.41 |  | 
55 | CCOC(=O)[C@@H]1CCCC[C@@H]1NC(=O)c1c2c(nn1Cc1ccccc1)CCCC2 [compound 270] | 5.51 | 5.74 |  | 
56 | CCOC(=O)[C@H]1CCCC[C@@H]1NC(=O)c1c2c(nn1Cc1ccccc1)CCCC2 [compound 271] | 5.21 | 5.59 |  | 
57 | CCOC(=O)[C@@H]1CCCC[C@H]1NC(=O)c1nn(Cc2ccccc2)c2c1CCCC2 [compound 272] | 7.07 | 7.15 |  | 
58 | CCOC(=O)[C@@H]1C2CCC(C2)[C@@H]1NC(=O)c1c2c(nn1Cc1ccccc1)CCCC2 (stereo partly drawn) [compound 273] | 5.80 | 6.38 |  | 
59 | CCOC(=O)[C@@H]1C2CCC(C2)[C@@H]1NC(=O)c1nn(Cc2ccccc2)c2c1CCCC2 (stereo partly drawn) [compound 274] | 7.73 | 8.80 |  | 
60 | CCOC(=O)[C@H]1C2C=CC(C2)[C@H]1NC(=O)c1c2c(nn1Cc1ccccc1)CCCC2 (stereo partly drawn) [compound 275] | 6.49 | 5.89 |  | 
61 | CCOC(=O)[C@H]1C2C=CC(C2)[C@H]1NC(=O)c1nn(Cc2ccccc2)c2c1CCCC2 (stereo partly drawn) [compound 276] | 6.87 | 6.60 |  | 
62 | CCOC(=O)[C@@H]1C2C=CC(C2)[C@@H]1NC(=O)c1c2c(nn1Cc1ccccc1)CCCC2 (stereo partly drawn) [compound 277] | 5.89 | 5.48 |  | 
63 | CCOC(=O)[C@H]1C2C=CC(C2)[C@H]1NC(=O)c1nn(C2CCCCC2)c2c1CCCC2 (stereo partly drawn) [compound 279] | 5.42 | 6.08 |  | 
